Measurements from paper PMC4026384, “Antibacterial Activity of THAM Trisphenylguanide against Methicillin-Resistant Staphylococcus aureus” (PLoS ONE, 2014).
Values after ≈ are worked out from the molar mass of the structure shown.

Key:
[1] = test system: Acinetobacter baumannii ATCC 19606; test: Minimum inhibitory concentration (microdilution); format: cell-based; settings: A. baumannii ATCC 19606; LB media; median of at least 3 determinations
Procedure: (§1) Minimum inhibitory concentration (MIC) values were determined for those compounds showing the most antibacterial activity in the bacterial viability assays (see Supplemental Materials) against each of the strains of bacteria using a microdilution method in 96 well plates with LB media according to guidelines published by the British Society for Antimicrobial Chemotherapy. Minimum bactericidal concentrations (MBC) were determined by plating 10 µL and 100 µL from each well showing no signs of growth after overnight incubation of the MIC plates and determining the minimum concentration showing a 3-log reduction of viable bacteria. MIC and MBC were also determined in cation-adjusted Mueller-Hinton broth (Hardy Diagnostics, Santa Maria, CA) for some compounds and strains.

[2] = test system: Enterococcus faecalis ATCC V583; test: Minimum inhibitory concentration (microdilution); format: cell-based; settings: E. faecalis V583; LB media; median of at least 3 determinations
Procedure: as §1

[3] = test system: Enterococcus faecalis MSU#10; test: Minimum inhibitory concentration (microdilution); format: cell-based; settings: E. faecalis MSU#10; LB media; median of at least 3 determinations
Procedure: as §1

[4] = test system: Escherichia coli (strain K91); test: Minimum inhibitory concentration (microdilution); format: cell-based; settings: E. coli K91; LB media; median of at least 3 determinations
Procedure: as §1

[5] = test system: Pseudomonas aeruginosa (strain PA01); test: Minimum inhibitory concentration (microdilution); format: cell-based; settings: P. aeruginosa PA01; LB media; median of at least 3 determinations
Procedure: as §1

[6] = test system: Staphylococcus aureus RN4220; test: Minimum inhibitory concentration (microdilution); format: cell-based; settings: S. aureus RN4220; LB media; median of at least 3 determinations
Procedure: as §1

[7] = test system: MRSA strain LAC, USA300; test: Minimum inhibitory concentration (microdilution); format: cell-based, Staphylococcus aureus; settings: MRSA USA300; LB media; median of at least 3 determinations
Procedure: as §1

[8] = test system: HaCaT human keratinocytes; test: Cell toxicity assay (MTS); format: cell-based; settings: for CC50: MTS assay, concentration which killed 50% of the cells
Procedure: The HaCaT cell line was grown in Epilife medium (MEPI500Ca) with human keratinocyte growth supplement (Invitrogen, San Diego, CA). Both types of cells were harvested using Tryspin/EDTA and diluted to 1×10^5 cells per well in a 96-well plate. Ten concentrations covering five orders of magnitude were tested with six replicates per concentration. […] MTS/PMS solution (Promega, Madison, WI) was added to the wells and absorbance was measured at 490 nm two to four hours later. Data was analyzed using GraphPad Prism version 5.0 (GraphPad Software, La Jolla, CA) using a variable slope inhibition dose response curve.

[9] = test system: E. coli K91; test: Bacterial viability assay; format: cell-based, Escherichia coli; settings: one hour in PBS, CFU, ± SEM
Procedure: (§2) Supplementary file pone.0097742.s003.doc: Table S1 Bacterial viability assays. Bacteria were grown at 37°C to mid-log phase (OD600 ∼0.4). The bacteria were diluted to approximately 10^4 to 10^5 colony forming units (CFU) per milliliter and added to a solution of phosphate buffered saline (PBS, 16 mM phosphate, 0.14 M NaCl, pH 7.2) containing the compound at varied concentrations. Samples were incubated at 37°C for one hour and then plated on Luria Bertani (LB) agar at appropriate dilutions in PBS. The plates were incubated overnight at 37°C and colonies enumerated the following day. IC50s were calculated from graphs of CFU as a function of compound concentration. Chlorhexidine was used as a positive control. […] (DOC) Click here for additional data file.
(§3) Bacterial viability assays. Bacteria were grown at 37°C to mid-log phase (OD600 ~0.4). The bacteria were diluted to approximately 10^4 to 10^5 colony forming units (CFU) per milliliter and added to a solution of phosphate buffered saline (PBS, 16 mM phosphate, 0.14 M NaCl, pH 7.2) containing the compound at varied concentrations. Samples were incubated at 37°C for one hour and then plated on Luria Bertani (LB) agar at appropriate dilutions in PBS. The plates were incubated overnight at 37°C and colonies enumerated the following day. IC50s were calculated from graphs of CFU as a function of compound concentration. Chlorhexidine was used as a positive control.

[10] = test system: P. aeruginosa PA01; test: Bacterial viability assay; format: cell-based, Pseudomonas aeruginosa; settings: one hour in PBS, CFU, ± SEM
Procedure: as §2, §3

[11] = test system: A. baumannii ATCC 19606; test: Bacterial viability assay; format: cell-based, Acinetobacter baumannii; settings: one hour in PBS, CFU, ± SEM
Procedure: as §2, §3

[12] = test system: A. baumannii ATCC BAA1605; test: Bacterial viability assay; format: cell-based, Acinetobacter baumannii; settings: one hour in PBS, CFU, ± SEM
Procedure: as §2, §3

[13] = test system: E. faecalis MSU#10; test: Bacterial viability assay; format: cell-based, Enterococcus faecalis; settings: E. faecalis MSU#10; one hour in PBS, CFU; ± SEM; read-out: IC50
Procedure: as §2, §3

[14] = test system: E. faecalis V583; test: Bacterial viability assay; format: cell-based, Enterococcus faecalis; settings: one hour in PBS, CFU, ± SEM
Procedure: as §2, §3

[15] = test system: S. aureus RN4220; test: Bacterial viability assay; format: cell-based, Staphylococcus aureus; settings: one hour in PBS, CFU, ± SEM
Procedure: (§4) Supplementary file pone.0097742.s003.doc: Table S1 Bacterial viability assays. Bacteria were grown at 37°C to mid-log phase (OD600 ∼0.4). The bacteria were diluted to approximately 10^4 to 10^5 colony forming units (CFU) per milliliter and added to a solution of phosphate buffered saline (PBS, 16 mM phosphate, 0.14 M NaCl, pH 7.2) containing the compound at varied concentrations. Samples were incubated at 37°C for one hour and then plated on Luria Bertani (LB) agar at appropriate dilutions in PBS. The plates were incubated overnight at 37°C and colonies enumerated the following day. IC50s were calculated from graphs of CFU as a function of compound concentration. Chlorhexidine was used as a positive control. Included are those guanide (G), biguanide (BG), phenylguanide (ΦG) compounds that had some antibacterial activity in an initial screen at 30 and 100 µM, as well as their and parent amines. Compounds synthesized from 1,4-butanediamine, 1,6-hexanediamine, trisethylaminomelamine, trisbutylaminomelamine, and the dendrimer PAMAM (G0) were not active against E. coli, P aeruginosa, or S. aureus so they were not tested against the remaining bacteria (data not shown). (DOC) Click here for additional data file.
as §4, with “Bacterial” for “Supplementary file pone.0097742.s003.doc: Table S1 Bacterial”, “~0.4).” for “∼0.4).”, “μM,” for “µM,”, “shown).” for “shown). (DOC) Click here for additional data file.”

[16] = test system: MRSA USA300; test: Bacterial viability assay; format: cell-based, Staphylococcus aureus; settings: one hour in PBS, CFU, ± SEM
Procedure: as §2, §3

| SMILES | MIC [1] | MIC [2] | MIC [3] | MIC [4] | MIC [5] | MIC [6] | MIC [7] | Relative to chlorhexidine (factor by which cytotoxicity was reduced) [8] | CC50 [8] | IC50 [9] | IC50 [10] | IC50 [11] | IC50 [12] | IC50 [13] | IC50 [14] | IC50 [15] | IC50 [16] |
| --- | --- | --- | --- | --- | --- | --- | --- | --- | --- | --- | --- | --- | --- | --- | --- | --- | --- |
| N=C(NCCCCCCCCNc1nc(NCCCCCCCCNC(=N)Nc2ccccc2)nc(NCCCCCCCCNC(=N)Nc2ccccc2)n1)Nc1ccccc1 [TOAM-3ΦG] | >64 mg/L | 4 mg/L (≈ 4.64 µM) | 2 mg/L (≈ 2.32 µM) | 2 mg/L (≈ 2.32 µM) | >64 mg/L | 2 mg/L (≈ 2.32 µM) | 2 mg/L (≈ 2.32 µM) | 1.3 | 2.4 mg/L (≈ 2.78 µM) | 330 ± 110 nM | 1000 ± 300 nM | 450 ± 230 nM | 1700 nM | 1.2 ± 0.1 µM | 1700 ± 400 nM | 540 ± 90 nM | 0.24 ± 0.03 µM |
| NCCCCCCCCNc1nc(NCCCCCCCCN)nc(NCCCCCCCCN)n1 [TOAM] | >64 mg/L | >64 mg/L | >64 mg/L | >64 mg/L | 64 mg/L (≈ 126 µM) | >64 mg/L | 48 mg/L (≈ 94.5 µM) | 2.1 | 4.1 mg/L (≈ 8.07 µM) | 3900 ± 300 nM | > 100000 nM | 3900 ± 2000 nM | 1300 ± 600 nM | 77 ± 30 µM | > 100000 nM | > 100000 nM | 30 µM |
